Tested on: Wistar (Crl:WI(Han)) rats
Assay: Mass spectrometry-based plasma metabolite profiling of rats treated with known inducers of thyroid function impairment
Type: in vivo, rat
Conditions: male rats, ratio of group medians vs controls, Table 4
How it was run: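 Rats aged 10-11 weeks, 5/sex/dose vs 10/sex controls, dosed at low and high levels; retro-orbital plasma taken under isoflurane on days 7, 14 and 28 after 16-20 h fast. Polar and non-polar fractions profiled by GC-MS (derivatised) and LC-MS/MS (MRM plus full scan), normalised to pool samples; Welch t-test by sex and day gives p-values and median ratios.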

`CCC1(c2ccccc2)C(=O)NC(=O)NC1=O` [Phenobarbital sodium] was tested, and the “Behenic acid (C22:0)” value (mh7 (study day 7)) was 1.03, the Cholesterol (mh7 (study day 7)) was 1.16 and the Citrate (mh7 (study day 7)) was 0.89. The Cytosine (mh7 (study day 7)) was 1.06, the “Galactose, lipid fraction” value (mh7 (study day 7)) was 1.12 and the Glycerol phosphate (mh7 (study day 7)) was 1.05. The Glycine (mh7 (study day 7)) was 0.95, the “Lignoceric acid (C24:0)” value (mh7 (study day 7)) was 1.21 and the Mannose (mh7 (study day 7)) was 1.08. For the same compound, the “Nervonic acid C24:(cis[15]1)” value (mh7 (study day 7)) was 1.27, the “Phospha-tidylcholine (C18:0, 18:2)” value (mh7 (study day 7)) was 1.13 and the “Sphingomyelin (d18:1, C16:0)” value (mh7 (study day 7)) was 1.30. For the same compound, the “Stearic acid (C18:0)” value (mh7 (study day 7)) was 0.99, the Threonic acid (mh7 (study day 7)) was 1.86 and the “dihomo-gamma-Linolenic acis (C20:cis[8,11,14]3)” value (“dihomo-gamma-Linolenic acis” for short) (mh7 (study day 7)) was 1.06. The erythro-Sphingosine (mh7 (study day 7)) was 1.39, the myo-Inositol-2-phosphate (mh7 (study day 7)) was 1.26 and the threo-Sphingosine (mh7 (study day 7)) was 1.39. For the same compound, the “Behenic acid (C22:0)” value (mh14 (study day 14)) was 1.11, the Cholesterol (mh14 (study day 14)) was 1.09 and the Citrate (mh14 (study day 14)) was 0.93. The Cytosine (mh14 (study day 14)) was 1.07, the “Galactose, lipid fraction” value (mh14 (study day 14)) was 1.18 and the Glycerol phosphate (mh14 (study day 14)) was 1.04. For the same compound, the Glycine (mh14 (study day 14)) was 1.18, the “Lignoceric acid (C24:0)” value (mh14 (study day 14)) was 1.18 and the Mannose (mh14 (study day 14)) was 1.05. The “Nervonic acid C24:(cis[15]1)” value (mh14 (study day 14)) was 1.77, the “Phospha-tidylcholine (C18:0, 18:2)” value (mh14 (study day 14)) was 1.14 and the “Sphingomyelin (d18:1, C16:0)” value (mh14 (study day 14)) was 1.55. For the same compound, the “Stearic acid (C18:0)” value (mh14 (study day 14)) was 1.19, the Threonic acid (mh14 (study day 14)) was 1.95 and the “dihomo-gamma-Linolenic acis” value (mh14 (study day 14)) was 1.03. It also gave an erythro-Sphingosine (mh14 (study day 14)) of 1.56, a myo-Inositol-2-phosphate (mh14 (study day 14)) of 1.16 and a threo-Sphingosine (mh14 (study day 14)) of 1.61. For the same compound, the “Behenic acid (C22:0)” value (mh28 (study day 28)) was 1.21, the Cholesterol (mh28 (study day 28)) was 1.18 and the Citrate (mh28 (study day 28)) was 0.96. The Cytosine (mh28 (study day 28)) was 0.98, the “Galactose, lipid fraction” value (mh28 (study day 28)) was 1.06 and the Glycerol phosphate (mh28 (study day 28)) was 1.05. For the same compound, the Glycine (mh28 (study day 28)) was 1.12, the “Lignoceric acid (C24:0)” value (mh28 (study day 28)) was 1.25 and the Mannose (mh28 (study day 28)) was 1.09. For the same compound, the “Nervonic acid C24:(cis[15]1)” value (mh28 (study day 28)) was 1.65, the “Phospha-tidylcholine (C18:0, 18:2)” value (mh28 (study day 28)) was 1.05 and the “Sphingomyelin (d18:1, C16:0)” value (mh28 (study day 28)) was 1.44. For the same compound, the “Stearic acid (C18:0)” value (mh28 (study day 28)) was 1.09, the Threonic acid (mh28 (study day 28)) was 1.88 and the “dihomo-gamma-Linolenic acis” value (mh28 (study day 28)) was 0.96. It also gave an erythro-Sphingosine (mh28 (study day 28)) of 1.65, a myo-Inositol-2-phosphate (mh28 (study day 28)) of 1.15 and a threo-Sphingosine (mh28 (study day 28)) of 1.50.

From patent publication US20120132797A1, “MEANS AND METHODS FOR DIAGNOSING THYROID DISORDERS” (BASF SE, priority 2009, published 2012)
